Patent US10577378B2, “EIF4A-inhibiting compounds and methods related thereto” (eFFECTOR Therapeutics, Inc., priority 2015, dated 2020)
pIC50: −log10 of the molar value.

system: MDA-MB-231 human breast cancer cells; assay: Cell proliferation assay (CellTiter-Glo, 72 hours treatment); format: cell-based; details: Homo sapiens; MDA-MB-231 cells, 72 hours at 37° C., CellTiter-Glo; read-out: MDA-MB-231 cell proliferation assay (IC50)
Procedure: Human tumor cell lines were cultured in the appropriate media (DMEM and RPMI) supplemented with penicillin G (100 U/ml), streptomycin (100 μg/ml), 10% FBS in a humidified atmosphere of 5% CO2 maintained at 37° C. Exponentially growing cells were seeded at 2,500 cells/well in 96 well plates prior to drug treatment. The following day, cells were treated with either DMSO (vehicle control) or eIF4A inhibitors at the appropriate dose for 72 hours at 37° C. Following compound treatment, cell proliferation was assessed by CellTiter-Glo assay (Promega, Madison Wis.) according to the manufacturer's protocol. Dose-response curves were fitted by non-linear regression (sigmoidal dose response model) using KaleidaGraph (Synergy Software, Reading Pa.) and IC50 values were calculated.
To this end, IC50 values of less than 100 nM are labelled as “+++”, from 100 nM to 1000 nM are labelled as “++”, and greater than 1000 nM are labelled as “+” (NA means “not available”).

Row | Structure (SMILES) | pIC50
1 | COc1ccc([C@@]23Oc4cc(OC)cnc4[C@]2(O)[C@H](O)[C@H](C(=O)N(C)C)[C@H]3c2ccccc2)cc1 (racemic) [1F, Rac-(5aR,6S,7R,8R,8aS)-8,8a-dihydroxy-3-methoxy-5a-(4-methoxyphenyl)-N,N-dimethyl-6-phenyl-5a,7,8,8a-tetrahydro-6H-cyclopenta[4,5]furo[3,2-b]pyridine-7-carboxamide] | 6.00 to 7.00
2 | CN(C)C(=O)[C@H]1[C@@H](O)[C@@]2(O)c3ccc(C#N)cc3S[C@@]2(c2ccc(C#N)cc2)[C@@H]1c1ccccc1 (racemic) [13F, Rac-(1R,2R,3S,3aR,8bS)-6-cyano-3a-(4-cyanophenyl)-1,8b-dihydroxy-N,N-dimethyl-3-phenyl-2,3,3a,8b-tetrahydro-1H-benzo[b]cyclopenta[d]thiophene-2-carboxamide] | < 6.00
3 | CN(C)C(=O)[C@H]1[C@@H](O)[C@@]2(O)c3cnc(C#N)cc3O[C@@]2(c2ccc(C#N)cc2)[C@@H]1c1ccccc1 (racemic) [14F, rac-(5aR,6S,7R,8R,8aS)-3-cyano-5a-(4-cyanophenyl)-8,8a-dihydroxy-N,N-dimethyl-6-phenyl-5a,7,8,8a-tetrahydro-6H-cyclopenta[4,5]furo[3,2-c]pyridine-7-carboxamide] | 6.00 to 7.00
4 | COc1ccc2c(n1)O[C@@]1(c3ccc(C#N)cc3)[C@H](c3ccccc3)[C@@H](C(=O)N(C)C)[C@@H](O)[C@@]21O (racemic) [15F, Rac-(4bS,5R,6R,7S,7aR)-7a-(4-cyanophenyl)-4b,5-dihydroxy-2-methoxy-N,N-dimethyl-7-phenyl-4b,6,7,7a-tetrahydro-5H-cyclopenta[4,5]furo[2,3-b]pyridine-6-carboxamide] | < 6.00
5 | COc1nccc2c1[C@]1(O)[C@H](O)[C@H](C(=O)N(C)C)[C@@H](c3ccccc3)[C@]1(c1ccc(C#N)cc1)O2 (racemic) [19F, rac-(5aR,6S,7R,8R,8aS)-5a-(4-cyanophenyl)-8,8a-dihydroxy-1-methoxy-N,N-dimethyl-6-phenyl-5a,7,8,8a-tetrahydro-6H-cyclopenta[4,5]furo[3,2-c]pyridine-7-carboxamide] | 6.00 to 7.00
6 | COC(=O)[C@H]1[C@@H](O)[C@@]2(O)c3nn(C)cc3O[C@@]2(c2ccc(C#N)cc2)[C@@H]1c1ccccc1 (racemic) [21F, Rac-methyl (4aR,5S,6R,7R,7aS)-4a-(4-cyanophenyl)-7,7a-dihydroxy-2-methyl-5-phenyl-2,4a,5,6,7,7a-hexahydrocyclopenta[4,5]furo[3,2-c]pyrazole-6-carboxylate] | < 6.00
7 | CN(C)S(=O)(=O)[C@H]1[C@@H](O)[C@@]2(O)c3ncc(Cl)cc3O[C@@]2(c2ccc(C#N)cc2)[C@@H]1c1ccccc1 (racemic) [22F, Rac-(5aR,6S,7R,8S,8aS)-3-chloro-5a-(4-cyanophenyl)-8,8a-dihydroxy-N,N-dimethyl-6-phenyl-5a,7,8,8a-tetrahydro-6H-cyclopenta[4,5]furo[3,2-b]pyridine-7-sulfonamide] | 6.00 to 7.00
8 | COC(=O)[C@@]12C[C@@H]1[C@@]1(O)c3ncc(Cl)cc3O[C@@]1(c1ccc(Br)cc1)[C@@H]2c1ccccc1 (racemic) [24F, rac-methyl (5aR,6R,6aS,7aS,7bR)-5a-(4-bromophenyl)-3-chloro-7b-hydroxy-6-phenyl-5a,7,7a,7b-tetrahydrocyclopropa[4′,5′]cyclopenta[1′,2′:4,5]furo[3,2-b]pyridine-6a(6H)-carboxylate] | < 6.00
9 | COC(=O)[C@@]12C[C@@H]1[C@@]1(O)c3ncc(Cl)cc3O[C@@]1(c1ccc(C#N)cc1)[C@@H]2c1ccccc1 (racemic) [25F, Rac-methyl (5aR,6R,6aS,7aS,7bR)-3-chloro-5a-(4-cyanophenyl)-7b-hydroxy-6-phenyl-5a,7,7a,7b-tetrahydrocyclopropa[4′,5′]cyclopenta[1′,2′:4,5]furo[3,2-b]pyridine-6a(6H)-carboxylate] | < 6.00
10 | N#Cc1ccc([C@@]23Oc4cc(Cl)cnc4[C@]2(O)[C@H](O)[C@H](c2ncco2)[C@H]3c2ccccc2)cc1 (racemic) [26F, Rac-4-((5aR,6S,7R,8R,8aS)-3-chloro-8,8a-dihydroxy-7-(oxazol-2-yl)-6-phenyl-6,7,8,8a-tetrahydro-5aH-cyclopenta[4,5]furo[3,2-b]pyridin-5a-yl)benzonitrile] | 6.00 to 7.00
11 | N#C[C@H]1[C@@H](O)[C@@]2(O)c3ncc(Cl)cc3O[C@@]2(c2ccc(Br)cc2)[C@@H]1c1ccccc1 (racemic) [27F, rac-(5aR,6S,7S,8R,8aS)-5a-(4-bromophenyl)-3-chloro-8,8a-dihydroxy-6-phenyl-5a,7,8,8a-tetrahydro-6H-cyclopenta[4,5]furo[3,2-b]pyridine-7-carbonitrile] | 6.00 to 7.00
12 | NC(=S)[C@H]1[C@@H](O)[C@@]2(O)c3ncc(Cl)cc3O[C@@]2(c2ccc(Br)cc2)[C@@H]1c1ccccc1 (racemic) [28F, Rac-(5aR,6S,7R,8R,8aS)-5a-(4-bromophenyl)-3-chloro-8,8a-dihydroxy-6-phenyl-5a,7,8,8a-tetrahydro-6H-cyclopenta[4,5]furo[3,2-b]pyridine-7-carbothioamide] | 6.00 to 7.00
13 | CN(C)C(=O)[C@H]1[C@@H](O)[C@@]2(O)c3nc(C(F)(F)F)c(O)cc3O[C@@]2(c2ccc(C#N)cc2)[C@@H]1c1ccccc1 (racemic) [29F, Rac-(5aR,6S,7R,8R,8aS)-5a-(4-cyanophenyl)-3,8,8a-trihydroxy-N,N-dimethyl-6-phenyl-2-(trifluoromethyl)-5a,7,8,8a-tetrahydro-6H-cyclopenta[4,5]furo[3,2-b]pyridine-7-carboxamide] | < 6.00
14 | N#Cc1ccc([C@@]23Oc4cc(Cl)cnc4[C@]2(O)[C@H](O)[C@H](CN)[C@H]3c2ccccc2)cc1 (racemic) [30F, rac-4-((5aR,6S,7S,8R,8aS)-7-(aminomethyl)-3-chloro-8,8a-dihydroxy-6-phenyl-6,7,8,8a-tetrahydro-5aH-cyclopenta[4,5]furo[3,2-b]pyridin-5a-yl)benzonitrile] | 6.00 to 7.00
15 | CN(C)C(=O)[C@@]12C[C@@H]1[C@@]1(O)c3ncc(Cl)cc3O[C@@]1(c1ccc(C#N)cc1)[C@@H]2c1ccccc1 (racemic) [31F, Rac-(5aR,6R,6aS,7aS,7bR)-3-chloro-5a-(4-cyanophenyl)-7b-hydroxy-N,N-dimethyl-6-phenyl-5a,7,7a,7b-tetrahydrocyclopropa[4′,5′]cyclopenta[1′,2′:4,5]furo[3,2-b]pyridine-6a(6H)-carboxamide] | < 6.00
16 | CN(C)C(=O)[C@H]1C(=O)[C@@]2(O)c3ncc(Cl)cc3O[C@@]2(c2ccc(C#N)cc2)[C@@H]1c1ccccc1 (racemic) [32F, Rac-(5aR,6S,7R,8aR)-3-chloro-5a-(4-cyanophenyl)-8a-hydroxy-N,N-dimethyl-8-oxo-6-phenyl-5a,7,8,8a-tetrahydro-6H-cyclopenta[4,5]furo[3,2-b]pyridine-7-carboxamide] | < 6.00
17 | CN(C)C(=O)[C@@H]1[C@@H](c2ccccc2)[C@]2(c3ccc(C#N)cc3)Oc3cc(Cl)cnc3[C@]2(O)[C@]1(C)O (racemic) [33Fa, Rac-(5aR,6S,7R,8R,8aS)-3-chloro-5a-(4-cyanophenyl)-8,8a-dihydroxy-N,N,8-trimethyl-6-phenyl-5a,7,8,8a-tetrahydro-6H-cyclopenta[4,5]furo[3,2-b]pyridine-7-carboxamide] | 6.00 to 7.00
